According to patent US4666897A, “Inhibition of mammalian collagenolytic enzymes by tetracyclines” (Research Foundation of State University, priority 1983, dated 1987):

How the values were obtained:
[1] = test system: conventional diabetic rats; experiment: Gingival collagenolytic activity, alveolar bone loss, skin collagen and crevicular microflora in conventional streptozotocin-diabetic rats; assay type: in vivo, rat; details: 20 mg per day by gavage
Description: Five month old (mean weight, 445g) male Sprague Dawley rats were made diabetic by I.V. injection of streptozotocin (70 mg/kg body weight), after a 12 hour fasting period, (as described by Golub, et al., Biochim. Biophys. Acta., 534, 73-81 (1978) and Golub, et al., Infect. Immun., 37, 1013-1020 (1982). Age matched uninjected rats served as controls. Some of the diabetic rats received the tetracycline, minocycline (20 mg. Minocin® per day; Lederle Laboratories, Pearl River, N.Y.), by gavage on a daily basis beginning 3 days after diabetes is induced. After a 25 day experimental period, blood samples were taken for glucose analysis, and subgingival plaque samples were taken for assessment of the microflora in the region (McNamara, et. al., Archs. Oral. Biol., 27, 217-223 (1982)). The animals were then sacrificed, gingival samples were taken for tissue culture and the jaw bones dissected.
Alveolar bone loss was assessed in the right and left mandibles of both the conventional and germfree rats (control and diabetic) using a modification of a previously described technique (Stralfors, et.al, Archs. Oral. Biol., 12, 1213-1216 (1967); Heijl, et. al., J. Periodontal Res., 15, 405-419 (1980)). The mandibles were defleshed (autoclaving followed by soaking in 2N NaOH for 2-3 h), dried, and the distance (expressed as units; 1 unit=0.05 mm) between the cementoenamel junction (CEJ) and the crest of the alveolar bone is measured in the long axis of the root surface at 10 specified sites on lingual surfaces of the 3 molar teeth (see Crawford, et.al., J. Periodontal Res., 13, 316-325 (1978)) using an eye-piece micrometer in a dissecting microscope (20× magnification).
The techniques used were those described by Schneir and Golub, (Streptozotocin: Fundamentals and Therapy (Ed. M. K. Agarwal, Elsevier/North-Holland Biomed Press, Chapter 12, pp 161-182, (1981)). […]

[2] = test system: fetal rat bones (radii and ulnae) in organ culture; experiment: PTH-induced bone resorption in organ culture (45calcium release); assay type: cell-based
Description: The technique used to assess bone resorption is based on monitoring the release of radioactive calcium, previously incorporated by embryonic bones in vivo, during organ culture. Pregnant Sprague-Dawley rats were injected subcutaneously with 200 μCi of ^45 calcium chloride on the 18th day of gestation. The following day, the animals were killed, the fetuses removed, and the radii and ulnae dissected under aseptic conditions. […] The bones were then randomly distributed and each bone, either a radius or ulna, was incubated in 0.5 ml of culture media alone or in a media containing parathyroid hormone (PTH: human synthetic 1-34 peptide, Beckman Instruments, Inc., Palo Alto, California) added in a final concentration of 1.0 μg/ml; the experimental bones were incubated in the PTH containing medium to which was added different concentrations (0.2-300 μg/ml) of the antibiotics to be tested. The bones were cultured for 5 days, with the media being changed after day 2, and the incubation terminated. The bones were decalcified in 0.2 ml of 5% trichloroacetic acid and the ^45 calcium content of the residual bones and of the culture media was measured as described previously. (Werner and Raisz, Endocrinology, 90, 752 (1972 ) and Gomes, et. al., Calc. Tiss. Res., 19, 285 (1976)). The ^45 calcium released into the media was calculated as a percentage of the total radioactive calcium measured in the bones.

[3] = Table 3, PTH + 2 μg/ml minocycline + 100 μg/ml Pen.-Strep.
[4] = Table 3, PTH + 2 μg/ml minocycline + 300 μg/ml Pen.-Strep.
[5] = Table 3, PTH + 20 μg/ml minocycline + 100 μg/ml Pen.-Strep.

CN(C)c1ccc(O)c2c1C[C@H]1C[C@H]3[C@H](N(C)C)C(O)=C(C(N)=O)C(=O)[C@@]3(O)C(O)=C1C2=O [minocycline, Minocycline]
Gram-negative microflora in the gingival crevices [1]: eliminated detectable signs
alveolar bone loss in the interproximal region [1]: completely reversed
reduction of gingival collagenolytic activity (tissue culture) ([1]; 25 day experimental period): 62%
^45 Calcium in Fetal Bone Released into Media (%) after 2 days incubation ([2]; Table 3, PTH + 0.2 μg/ml): 42.6 ± 0.6%
^45 Calcium in fetal bone Released into media (%) after 5 days incubation ([2]; Table 3, PTH + 0.2 μg/ml): 75.6 ± 1.0%
^45 Calcium in Fetal Bone Released into Media (%) after 2 days incubation ([2]; Table 3, PTH + 2 μg/ml): 44.2 ± 2.1%
^45 Calcium in fetal bone Released into media (%) after 5 days incubation ([2]; Table 3, PTH + 2 μg/ml): 74.7 ± 3.1%
^45 Calcium in Fetal Bone Released into Media (%) after 2 days incubation [2, 3]: 42.9 ± 1.9%
^45 Calcium in fetal bone Released into media (%) after 5 days incubation [2, 3]: 70.2 ± 3.7%
^45 Calcium in Fetal Bone Released into Media (%) after 2 days incubation [2, 4]: 45.7 ± 2.5%
^45 Calcium in fetal bone Released into media (%) after 5 days incubation [2, 4]: 71.8 ± 3.5%
^45 Calcium in Fetal Bone Released into Media (%) after 2 days incubation ([2]; Table 3, PTH + 20 μg/ml): 22.5 ± 1.6%
^45 Calcium in fetal bone Released into media (%) after 5 days incubation ([2]; Table 3, PTH + 20 μg/ml): 29.2 ± 1.8%
^45 Calcium in Fetal Bone Released into Media (%) after 2 days incubation [2, 5]: 21.5 ± 1.5%
^45 Calcium in fetal bone Released into media (%) after 5 days incubation [2, 5]: 31.9 ± 2.1%
^45 Calcium in fetal bone Released into media (%) after 5 days incubation ([2]; Table 3, PTH + 20 μg/ml minocycline + 300 μg/ml Pen.-Strep.): 33.5 ± 1.3%
^45 Calcium in Fetal Bone Released into Media (%) after 2 days incubation ([2]; Table 3, PTH + 60 μg/ml): 19.4 ± 0.9%
^45 Calcium in fetal bone Released into media (%) after 5 days incubation ([2]; Table 3, PTH + 60 μg/ml): 24.5 ± 1.1%
^45 Calcium in Fetal Bone Released into Media (%) after 2 days incubation ([2]; Table 3, PTH + 200 μg/ml): 17.6 ± 0.4%
^45 Calcium in fetal bone Released into media (%) after 5 days incubation ([2]; Table 3, PTH + 200 μg/ml): 22.3 ± 0.5%
^45 Calcium in Fetal Bone Released into Media (%) after 2 days incubation ([2]; Table 4, first column, PTH + 0.2 μg/ml): 54.5 ± 4.1%
^45 Calcium in Fetal Bone Released into Media (%) after 2 days incubation ([2]; Table 4, first column, PTH + 2.0 μg/ml): 56.5 ± 2.6%
^45 Calcium in Fetal Bone Released into Media (%) after 2 days incubation ([2]; Table 4, first column, PTH + 20 μg/ml): 40.7 ± 0.8%
^45 Calcium in Fetal Bone Released into Media (%) after 2 days incubation ([2]; Table 4, first column, PTH + 200 μg/ml): 16.4 ± 1.1%
^45 Calcium in Fetal Bone Released into Media (%) after 2 days incubation ([2]; Table 4, second column, PTH + 0.2 μg/ml): 95.1 ± 1.8%
^45 Calcium in Fetal Bone Released into Media (%) after 2 days incubation ([2]; Table 4, second column, PTH + 2.0 μg/ml): 93.3 ± 2.6%
^45 Calcium in Fetal Bone Released into Media (%) after 2 days incubation ([2]; Table 4, second column, PTH + 20 μg/ml): 50.1 ± 0.8%
^45 Calcium in Fetal Bone Released into Media (%) after 2 days incubation ([2]; Table 4, second column, PTH + 200 μg/ml): 20.4 ± 1.5%
effect on PTH-enhanced bone resorption, in words ([2]; concentrations 0.2-300 μg/ml): inhibit ^45 calcium release in a dose responsive manner
